Laboratory results reported in US20230276792A1, “SELECTIVE HERBICIDES BASED ON SUBSTITUTED ISOXAZOLIN CARBOXAMIDES AND CLOQUINTOCET-MEXYL” (Bayer Aktiengesellschaft, priority 2020, published 2023).

Tests used:
Format in all cases: in vivo
[1] = system: spring barley, HORVS Montoya; assay: Safener seed treatment, post-emergence herbicide application, crop damage; parameters: key to Reduction [Difference]: % crop damage without safener minus % damage with safener; settings: cloquintocet-mexyl 0, 5 g a.i./kg seed
Source text: (§1) For safener seed treatment trials, sufficient seed amounts of the respective crops (spring wheat (TRZAS); spring barley (HORVS)) were weighed into screw cap glass bottles with a minimum volume trice of the seeds.
(§2) As a first step, specified safeners formulated as wettable powder (WP) or wettable granules (WG) were weighed out for the required dosages (g a.i./kg seed), corresponding to the seed amounts. The safener amounts were mixed with a coloured slurry blind formulation type, pre-diluted with milk at 3.5% fat rate (25 mgs slurry formulation plus 2 ml milk per 10 grams of seed). A tube roller was used for coating. The solutions were gradually pipetted each on the rotating seeds followed by coating for min. 3 hours until all liquid had been soaked up by the seeds. Thereafter, the coated seeds were put flat on open trays for drying over night at room temperature.
(§3) Treated seeds were then placed into pots (7 cm diameter) on the surface of sandy loam, pressed down, flat covered with additional soil and finally covered with sandy soil, also pressed down, watered, and kept under good growth conditions in a greenhouse, until the plants had reached 2-leaf-stage (BBCH 12).
(§4) At that stage, post-emergence application of the specified herbicides was done on: • a) pot sets containing plants with safener-coated seeds as described above, • b) as a reference, pot sets of plants without seed treatment.
(§5) The herbicides were formulated as wettable powder (WP). Equivalent to the spray area, compound amounts were weighed out and diluted related to the water application rate (300 l/ha) to an aqueous suspension plus additive (1 l/ha MERO). Dosage related equivalents were conventionally sprayed on trays with the potted plants.
(§6) After application, the test plants were kept under good growth conditions in a greenhouse. Assessment timings were 10 and 21 days after treatment (DAT) with the herbicide, by visual scoring of the crop damage in % (comparison of untreated with treated plants, either sprayed only with herbicide or with herbicide on plants with treated seeds).
(§7) Reduction [Difference]=herbicide damage without safener−herbicide damage with safener
(§8) Reduction [%]=(Reduction [Difference]*100)/herbicide damage without safener
(§9) a) Plant Species, Variety: HORVS Montoya, Safener (SAF): Cloquintocet-Mexyl

[2] = system: spring barley, HORVS Montoya; assay: Tank-mix post-emergence crop damage, herbicide with and without safener cloquintocet-mexyl, greenhouse; parameters: key to Reduction [Difference]: damage without safener − damage with safener, % points (0–100% scale)
Description: Seeds of crops (spring wheat, TRZAS; spring barley, HORVS; maize, ZEAMA) were placed in sandy loam soil in peat pots, covered with soil and cultivated in a greenhouse under good growth conditions. Two to three weeks after sowing, the test plants were treated at the 1 to 3-leaf stage. The herbicide/safener active compound combinations according to the invention, formulated as wettable powders or emulsion concentrates, and, in parallel tests, the correspondingly formulated individual active compounds were sprayed onto the green parts of the plants in various dosages using an amount of water of 300 l/ha (converted).
The pots were returned under good growing conditions in a glasshouse and a visual assessment of herbicidal effects was made at intervals from 1 to 3 weeks after herbicide application (DAT=days after treatment). Assessment was on a percentage basis in comparison with untreated control plants (0%=no injury, 100%=complete kill).
as §7, §8, §9

[3] = system: spring wheat, TRZAS Triso; assay: Safener seed treatment, post-emergence herbicide application, crop damage; settings: for HER effect + SAF [%] / Reduction [%]: cloquintocet-mexyl 0, 5 g a.i./kg seed; for HER effect [%]: without safener
Source text: as §1, §2, §3, §4, §5, §6, §7, §8
b) Plant Species, Variety: TRZAS Triso, Safener (SAF): Cloquintocet-Mexyl

[4] = 10 DAT, HER dose 8 g a.i./ha, cloquintocet-mexyl 50 g a.i./ha
[5] = 10 DAT, HER dose 32 g a.i./ha, cloquintocet-mexyl 100 g a.i./ha
[6] = 10 DAT, HER dose 48 g a.i./ha, cloquintocet-mexyl 100 g a.i./ha

COC(=O)C1COCC1NC(=O)C1(C)CC(c2cc(F)cc(F)c2)=NO1 (mixture of isomers) [Example 1.93]
HER effect + SAF ([1]; 10 DAT, HER dose 32 g a.i./ha): 20%
Reduction [%] ([1]; 10 DAT, HER dose 32 g a.i./ha): 78%
Reduction [Difference] ([1]; 10 DAT, HER dose 32 g a.i./ha): 70
HER effect + SAF [2, 4]: 60%
Reduction [%] [2, 4]: 29%
Reduction [Difference] [2, 4]: 25
HER effect + SAF [2, 5]: 60%
Reduction [%] [2, 5]: 33%
Reduction [Difference] [2, 5]: 30
HER effect + SAF [%] ([3]; 21 DAT, HER dose 2 g a.i./ha): 0%
HER effect [%] ([3]; 21 DAT, HER dose 2 g a.i./ha): 85%
HER effect + SAF [%] ([3]; 21 DAT, HER dose 8 g a.i./ha): 10%
HER effect [%] ([3]; 21 DAT, HER dose 8 g a.i./ha): 93%
HER effect + SAF [%] ([3]; 21 DAT, HER dose 32 g a.i./ha): 10%
HER effect [%] ([3]; 21 DAT, HER dose 32 g a.i./ha): 95%

CSCCOC(=O)C1C=CC(NC(=O)C2(C(F)(F)F)CC(c3cc(F)cc(F)c3)=NO2)C1 (centres unmarked) [Example 1.7]
HER effect + SAF ([1]; 21 DAT, HER dose 2 g a.i./ha): 30%
Reduction [Difference] ([1]; 21 DAT, HER dose 2 g a.i./ha): 40
HER effect + SAF ([1]; 21 DAT, HER dose 32 g a.i./ha): 60%
Reduction [%] ([1]; 21 DAT, HER dose 32 g a.i./ha): 37%
Reduction [Difference] ([1]; 21 DAT, HER dose 32 g a.i./ha): 35
HER effect + SAF [%] ([3]; 10 DAT, HER dose 2 g a.i./ha): 0%
HER effect [%] ([3]; 10 DAT, HER dose 2 g a.i./ha): 50%
HER effect + SAF [%] ([3]; 10 DAT, HER dose 8 g a.i./ha): 30%
Reduction [%] ([3]; 10 DAT, HER dose 8 g a.i./ha): 68%
HER effect [%] ([3]; 10 DAT, HER dose 8 g a.i./ha): 93%
HER effect + SAF [%] ([3]; 10 DAT, HER dose 32 g a.i./ha): 50%
Reduction [%] ([3]; 10 DAT, HER dose 32 g a.i./ha): 46%
HER effect [%] ([3]; 10 DAT, HER dose 32 g a.i./ha): 93%

C=CC1(C(=O)NC2COC(C(=O)OCCOC)C2)CC(c2cc(C)cc(F)c2)=NO1 (mixture of isomers) [Example 1.65]
Reduction [Difference] ([1]; 10 DAT, HER dose 8 g a.i./ha): 80
HER effect + SAF ([1]; 10 DAT, HER dose 32 g a.i./ha): 10%
Reduction [%] ([1]; 10 DAT, HER dose 32 g a.i./ha): 88%
Reduction [Difference] ([1]; 10 DAT, HER dose 32 g a.i./ha): 70
HER effect + SAF [%] ([3]; 10 DAT, HER dose 8 g a.i./ha): 0%
HER effect [%] ([3]; 10 DAT, HER dose 8 g a.i./ha): 20%

CC(C)OC(=O)C1CC(NC(=O)C2(C(C)(F)F)CC(c3cc(F)cc(F)c3)=NO2)CO1 (mixture of isomers) [Example 1.88]
Reduction [%] ([1]; 21 DAT, HER dose 2 g a.i./ha): 40%
HER effect + SAF ([1]; 21 DAT, HER dose 8 g a.i./ha): 40%
Reduction [%] ([1]; 21 DAT, HER dose 8 g a.i./ha): 53%
Reduction [Difference] ([1]; 21 DAT, HER dose 8 g a.i./ha): 45
Reduction [%] ([2]; 21 DAT, HER dose 1, 5 g a.i./ha, cloquintocet-mexyl 50 g a.i./ha): 50%
HER effect + SAF [%] ([3]; 21 DAT, HER dose 2 g a.i./ha): 20%
Reduction [%] ([3]; 21 DAT, HER dose 2 g a.i./ha): 71%
HER effect [%] ([3]; 21 DAT, HER dose 2 g a.i./ha): 70%
HER effect + SAF [%] ([3]; 21 DAT, HER dose 8 g a.i./ha): 20%
HER effect [%] ([3]; 21 DAT, HER dose 8 g a.i./ha): 85%

COC(=O)C1CC(NC(=O)C2(OC)CC(c3cc(F)cc(F)c3)=NO2)CO1 (mixture of isomers) [Example 1.72]
Reduction [%] [2, 4]: 67%
HER effect + SAF [2, 5]: 20%
Reduction [%] [2, 5]: 60%
HER effect + SAF [%] ([3]; 21 DAT, HER dose 32 g a.i./ha): 10%
HER effect [%] ([3]; 21 DAT, HER dose 32 g a.i./ha): 60%

COC(=O)C1C=CC(NC(=O)C2(C(F)(F)F)CC(c3cccc(F)c3)=NO2)C1 (centres unmarked) [Example 1.18]
Reduction [Difference] ([1]; 10 DAT, HER dose 32 g a.i./ha): 80

CCOC(=O)C1C=CC(NC(=O)C2(C(F)(F)F)CC(c3cc(OC)cc(OC)c3)=NO2)C1 (mixture of isomers) [Example 1.12]
HER effect + SAF [2, 6]: 10%
Reduction [%] [2, 6]: 83%
Reduction [Difference] [2, 6]: 50
